From patent US20240116985A1, “STAPLED PEPTIDES AND METHODS THEREOF” (priority 2020, published 2024)
Where two headings read alike, the source gives them in different places.

Assays:
[1] = target: T1, full-length beta-Catenin (Uniprot ID P35222) (Homo sapiens, UniProt P35222); experiment: Fluorescence polarization IC50 (beta-catenin / 5FAM-TCF4 10-53 competition); type: binding; settings: fluorescence polarization; read-out: beta-Catenin FP IC50
T1 construct: 10 nM full-length beta-Catenin (Uniprot ID P35222)
T1 sequence (P35222 1-781): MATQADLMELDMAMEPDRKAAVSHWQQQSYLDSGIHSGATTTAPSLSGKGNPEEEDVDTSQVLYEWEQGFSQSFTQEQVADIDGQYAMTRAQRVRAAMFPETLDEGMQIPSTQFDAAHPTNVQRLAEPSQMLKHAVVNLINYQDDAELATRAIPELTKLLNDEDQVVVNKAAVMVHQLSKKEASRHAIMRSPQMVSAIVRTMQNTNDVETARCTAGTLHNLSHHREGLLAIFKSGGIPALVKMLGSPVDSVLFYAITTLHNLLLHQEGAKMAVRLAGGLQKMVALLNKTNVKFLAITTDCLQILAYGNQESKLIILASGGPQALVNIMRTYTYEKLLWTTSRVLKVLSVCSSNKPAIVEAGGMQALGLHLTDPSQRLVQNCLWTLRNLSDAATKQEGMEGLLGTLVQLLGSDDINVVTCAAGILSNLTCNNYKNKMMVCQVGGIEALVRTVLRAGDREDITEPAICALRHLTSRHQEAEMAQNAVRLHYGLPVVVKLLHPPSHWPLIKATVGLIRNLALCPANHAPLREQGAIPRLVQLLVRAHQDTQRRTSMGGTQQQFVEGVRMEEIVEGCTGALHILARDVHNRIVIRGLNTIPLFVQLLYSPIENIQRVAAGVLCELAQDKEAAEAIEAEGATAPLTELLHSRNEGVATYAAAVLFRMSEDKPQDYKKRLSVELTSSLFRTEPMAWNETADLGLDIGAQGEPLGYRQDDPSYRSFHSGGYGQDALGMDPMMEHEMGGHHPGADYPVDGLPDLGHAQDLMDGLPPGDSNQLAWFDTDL

[2] = target: T2, beta-catenin/TCF4 engagement (Homo sapiens, UniProt P35222); experiment: Nano-BRET target engagement assay (B-cat-Halo & TCF4-Luc in HEK293 cells); type: cell-based; settings: read-out: NanoBRET Abs IC50
T2 construct: expressed in transfected cells; host or cells: HEK293
T2 sequence (P35222 1-781): T1 sequence (P35222 1-781)

Row | SMILES | IC50 [1] [µM] | IC50 [2] [µM] | IC50 ([2]; absolute IC50) [µM]
1 | CCNC(=O)CC[C@H](NC(=O)[C@H](Cc1csc2ccccc12)NC(=O)[C@H](Cc1ccsc1)NC(=O)[C@]12CCN(C1)C(=O)OCCCC=CCCCC1(CCCC=CC[C@]3(CCCN3C(C)=O)C(=O)N[C@@H](CC(=O)O)C(=O)N[C@@H](CC(C)(C)C)C(=O)N1)C(=O)N[C@@H](CC(=O)O)C(=O)N[C@@H](CN(CC(=O)O)CC(F)(F)F)C(=O)N[C@@H](C)C(=O)N[C@@H](C)C(=O)N[C@@H](Cc1ccccc1)C(=O)N[C@@H](CC(C)C)C(=O)N2)C(=O)N[C@@H](C)C(N)=O (stereo partly drawn) [I-2471, Ac-PL3-Asp-Npg-B5-Asp-TfeGA-Ala-Ala-Phe-Leu-PyrS2-3Thi-BztA-[NHEt]GlnR-Ala-NH2] | 0.014 | – | 2.1
2 | COC(=O)C[C@@H]1NC(=O)[C@]2(CC=CCCCC3(CCCC=CCCCOC(=O)N4CC[C@@](C(=O)N[C@@H](Cc5ccsc5)C(=O)N[C@@H](Cc5csc6ccccc56)C(=O)N[C@@H](CCC(N)=O)C(N)=O)(C4)NC(=O)[C@H](CC(C)C)NC(=O)[C@H](Cc4ccccc4)NC(=O)[C@H](C)NC(=O)[C@H](C)NC(=O)[C@H](CC(=O)O)NC(=O)[C@H](CC(=O)O)NC3=O)NC(=O)[C@H](CC(C)(C)C)NC1=O)CCCN2C(C)=O (stereo partly drawn) [I-2359, Ac-PL3-[Me]AspE-Npg-B5-Asp-Asp-Ala-Ala-Phe-Leu-PyrS2-3Thi-BztA-Gln-NH2] | 0.424 | – | > 20
3 | CC(=O)N1CCC[C@]12CC=CCCCC1(CCCC=CCCCOC(=O)N3CC[C@@](C(=O)N[C@@H](Cc4ccccc4C(F)(F)F)C(=O)N[C@@H](Cc4csc5ccccc45)C(=O)N[C@@H](C)C(N)=O)(C3)NC(=O)[C@H](CC(C)C)NC(=O)[C@H](Cc3ccccc3)NC(=O)[C@H](C)NC(=O)[C@H](CCC(N)=O)NC(=O)[C@H](Cn3cc(CC(C)(C)C(=O)O)nn3)NC(=O)[C@H](CC(=O)O)NC1=O)NC(=O)[C@H](CC(C)(C)C)NC(=O)[C@H](CC(=O)O)NC2=O (stereo partly drawn) [I-2368, Ac-PL3-Asp-Npg-B5-Asp-[CH2CMe2CO2H]TriAzDap-Gln-Ala-Phe-Leu-PyrS2-2F3MeF-BztA-Ala-NH2] | 0.005 | – | 5
4 | CC(=O)N(CC[C@@H]1NC(=O)[C@H](CC(=O)O)NC(=O)C2(CCCC=CCCCOC(=O)N3CC[C@@](C(=O)N[C@@H](Cc4ccsc4)C(=O)N[C@@H](Cc4csc5ccccc45)C(=O)N[C@@H](CCC(N)=O)C(N)=O)(C3)NC(=O)[C@H](CC(C)C)NC(=O)[C@H](Cc3ccccc3)NC(=O)[C@H](C)NC(=O)[C@H](C)NC1=O)CCCC=CC[C@]1(CCCN1C(C)=O)C(=O)N[C@@H](CC(=O)O)C(=O)N[C@@H](CC(C)(C)C)C(=O)N2)CC(=O)O (stereo partly drawn) [I-1840, Ac-PL3-Asp-Npg-B5-Asp-[Ac]GAbu-Ala-Ala-Phe-Leu-PyrS2-3Thi-BztA-Gln-NH2] | 0.014 | – | 22.3
5 | CC(=O)N1CCC[C@]12CC=CCCCC1(CCCC=CCCCOC(=O)N3CC[C@@](C(=O)N[C@@H](Cc4ccccc4Cl)C(=O)N[C@@H](Cc4ccc5ccccc5c4)C(=O)N[C@@H](CCC(N)=O)C(N)=O)(C3)NC(=O)[C@H](CC(C)C)NC(=O)[C@H](Cc3ccccc3)NC(=O)[C@H](C)NC(=O)[C@H](C)NC(=O)[C@H](CC(=O)O)NC(=O)[C@H](CC(=O)O)NC1=O)NC(=O)[C@H](CC(C)(C)C)NC(=O)[C@H](CC(=O)O)NC2=O (stereo partly drawn) [I-1237, Ac-PL3-Asp-Npg-B5-Asp-Asp-Ala-Ala-Phe-Leu-PyrS2-2C1F-2NapA-Gln-NH2] | 0.031 | – | 39.9
6 | CC(=O)N1CCC[C@]12CC=CCCCC1(CCCC=CCCCOC(=O)N3CC[C@@](C(=O)N[C@@H](Cc4ccsc4)C(=O)N[C@@H](Cc4csc5ccccc45)C(=O)N[C@@H](CCC(N)=O)C(N)=O)(C3)NC(=O)[C@H](CC(C)C)NC(=O)[C@H](Cc3ccccc3)NC(=O)[C@H](CCCN3CCOCC3)NC(=O)[C@H](C)NC(=O)[C@H](CC(=O)O)NC(=O)[C@H](CC(=O)O)NC1=O)NC(=O)[C@H](CC(C)(C)C)NC(=O)[C@H](CC(=O)O)NC2=O (stereo partly drawn) [I-1501, Ac-PL3-Asp-Npg-B5-Asp-Asp-Ala-MorphNva-Phe-Leu-PyrS2-3Thi-BztA-Gln-NH2] | 0.046 | – | > 20
7 | CC(=O)N1CCC[C@]12CC=CCCCC1(CCCC=CCCCOC(=O)N3CC[C@@](C(=O)N[C@@H](Cc4ccsc4)C(=O)N[C@@H](Cc4csc5ccccc45)C(=O)N[C@@H](CCC(N)=O)C(N)=O)(C3)NC(=O)[C@H](CC(C)C)NC(=O)[C@H](Cc3cccc(C(=O)O)c3)NC(=O)[C@H](C)NC(=O)[C@H](C)NC(=O)[C@H](Cc3c[nH]cn3)NC(=O)[C@H](CC(=O)O)NC1=O)NC(=O)[C@H](CC(C)(C)C)NC(=O)[C@H](CC(=O)O)NC2=O (stereo partly drawn) [I-2122, Ac-PL3-Asp-Npg-B5-Asp-His-Ala-Ala-3COOHF-Leu-PyrS2-3Thi-BztA-Gln-NH2] | 0.012 | 34.4 | –

The remaining compounds from weak to strong by IC50 [1], led by results:

Row | IC50 [1] [µM] | IC50 [2] [µM] | IC50 ([2]; absolute IC50) [µM] | SMILES
8 | 0.633 | 25.2 | – | CCSSCCOC(=O)C[C@@H]1NC(=O)[C@H](CC(=O)O)NC(=O)C2(CCCC=CCCCOC(=O)N3CC[C@@](C(=O)N[C@@H](Cc4ccsc4)C(=O)N[C@@H](Cc4csc5ccccc45)C(=O)N[C@@H](CCC(N)=O)C(N)=O)(C3)NC(=O)[C@H](CC(C)C)NC(=O)[C@H](Cc3ccccc3)NC(=O)[C@H](C)NC(=O)[C@H](C)NC1=O)CCCC=CC[C@]1(CCCN1C(C)=O)C(=O)N[C@@H](CC(=O)O)C(=O)N[C@@H](CC(C)(C)C)C(=O)N2 (stereo partly drawn) [I-1965, Ac-PL3-Asp-Npg-B5-Asp-[EtSSEt]AspE-Ala-Ala-Phe-Leu-PyrS2-3Thi-BztA-Gln-NH2]
9 | 0.19 | > 20 | – | CC(=O)N1CCC[C@]12CC=CCCCC1(CCCC=CCCCOC(=O)N3CC[C@@](C(=O)N[C@@H](Cc4ccccc4)C(=O)N[C@@H](Cc4csc5ccccc45)C(=O)N[C@@H](C)C(N)=O)(C3)NC(=O)[C@H](CC(N)=O)NC(=O)[C@H](Cc3ccccc3)NC(=O)[C@H](C)NC(=O)[C@H](CCC(N)=O)NC(=O)[C@H](CCC(N)=O)NC(=O)[C@H](CC(=O)O)NC1=O)NC(=O)[C@H](CC1CCCCC1)NC(=O)[C@H](CC(N)=O)NC2=O (stereo partly drawn) [I-2070, Ac-PL3-Asn-Cha-B5-Asp-Gln-Gln-Ala-Phe-Asn-PyrS2-Phe-BztA-Ala-NH2]
10 | 0.095 | – | > 20 | CNC(=O)C[C@H](NC(=O)[C@H](Cc1csc2ccccc12)NC(=O)[C@H](Cc1ccsc1)NC(=O)[C@]12CCN(C1)C(=O)OCCCC=CCCCC1(CCCC=CC[C@]3(CCCN3C(C)=O)C(=O)N[C@@H](CC(=O)O)C(=O)N[C@@H](CC(C)(C)C)C(=O)N1)C(=O)N[C@@H](CC(N)=O)C(=O)N[C@@H]([C@@H](C)O)C(=O)NC(C)(C)C(=O)N[C@@H](C)C(=O)N[C@@H](Cc1ccccc1)C(=O)N[C@@H](CC(N)=O)C(=O)N2)C(N)=O (stereo partly drawn) [I-2495, Ac-PL3-Asp-Npg-B5-Asn-Thr-Aib-Ala-Phe-Asn-PyrS2-3Thi-BztA-MeAsn-NH2]
11 | 0.069 | – | 12 | CC(=O)N1CCC[C@]12CC=CCCCC1(CCCC=CCCCOC(=O)N3CC[C@@](C(=O)N[C@@H](Cc4ccccc4Cl)C(=O)N[C@@H](Cc4csc5ccccc45)C(=O)N[C@@H](CO)C(N)=O)(C3)NC(=O)[C@H](Cc3ccccc3)NC(=O)[C@H](Cc3ccccc3)NC(=O)[C@H](C)NC(=O)[C@H](C)NC(=O)[C@H](Cc3ccccc3C(=O)O)NC(=O)[C@H](CC(=O)O)NC1=O)NC(=O)[C@H](CC(C)(C)C)NC(=O)[C@H](CC(=O)O)NC2=O (stereo partly drawn) [I-1662, Ac-PL3-Asp-Npg-B5-Asp-2COOHF-Ala-Ala-Phe-Phe-PyrS2-2C1F-BztA-Ser-NH2]
12 | 0.029 | > 20 | – | CC(=O)N1CCC[C@]12CC=CCCCC1(CCCC=CCCCOC(=O)N3CC[C@@](C(=O)N[C@@H](Cc4ccsc4)C(=O)N[C@@H](Cc4csc5ccccc45)C(=O)N[C@@H](CCC(N)=O)C(N)=O)(C3)NC(=O)[C@H](CC(N)=O)NC(=O)[C@H](Cc3cccc(C(=O)O)c3)NC(=O)[C@H](C)NC(=O)[C@H](C)NC(=O)[C@H](Cc3c[nH]cn3)NC(=O)[C@H](CC(=O)O)NC1=O)NC(=O)[C@H](CC(C)(C)C)NC(=O)[C@H](CC(=O)O)NC2=O (stereo partly drawn) [I-2119, Ac-PL3-Asp-Npg-B5-Asp-His-Ala-Ala-3COOHF-Asn-PyrS2-3Thi-BztA-Gln-NH2]
13 | 0.009 | – | 5.2 | CC(=O)N1CCC[C@]12CC=CCCCC1(CCCC=CCCCOC(=O)N3CC[C@@](C(=O)N[C@@H](Cc4ccccc4Cl)C(=O)N[C@@H](Cc4csc5ccccc45)C(=O)N[C@@H](CC(=O)N4CCOCC4)C(N)=O)(C3)NC(=O)[C@H]([C@@H](C)O)NC(=O)[C@H](Cc3ccccc3)NC(=O)[C@H](C)NC(=O)[C@H](C)NC(=O)[C@H](CN(CC(=O)O)CC(F)(F)F)NC(=O)[C@H](CC(=O)O)NC1=O)NC(=O)[C@H](CC(C)(C)C)NC(=O)[C@H](CC(=O)O)NC2=O (stereo partly drawn) [I-1613, Ac-PL3-Asp-Npg-B5-Asp-TfeGA-Ala-Ala-Phe-Thr-PyrS2-2C1F-BztA-MorphAsn-NH2]
